Data from ChEMBL document CHEMBL4229332, “Novel multi-target azinesulfonamides of cyclic amine derivatives as potential antipsychotics with pro-social and pro-cognitive effects” (Eur J Med Chem, 2018).

What was measured:
[1] = target: D(3) dopamine receptor (Homo sapiens) (UniProt P35462); test: Antagonist activity at human D3R expressed in CHO-K1 cells assessed as inhibition of dopamine induced cAMP accumulation after 30 mins by HTRF method; assay type: functional, cell-based
[2] = target: T1, 5-hydroxytryptamine receptor 7 (Homo sapiens, UniProt P34969); test: Antagonist activity at human 5-HT7R expressed in CHO-K1 cells assessed as inhibition of serotonin-induced cAMP accumulation at 10^-6 M after 30 mins by chemiluminescence-based assay; assay type: functional, cell-based
[3] = system: Cavia porcellus; test: Cardiotoxicity in guinea pig assessed as QT prolongation at 10 mg/kg, ip; assay type: toxicity, organism-based; conditions: in vivo
[4] = target: T1, 5-hydroxytryptamine receptor 7; test: Displacement of [3H]LSD from recombinant human 5-HT7R after 120 mins by scintillation counting method
[5] = target: 5-hydroxytryptamine receptor 1B (Cricetulus griseus) (UniProt P46636); test: Antagonist activity at 5-HT1BR in CHO cells assessed as inhibition of serotonin-induced response; assay type: functional, cell-based
[6] = target: D(3) dopamine receptor (Homo sapiens) (UniProt P35462); test: Antagonist activity at human D3R expressed in CHO-K1 cells assessed as inhibition of […] cAMP accumulation by chemiluminescence-based assay; assay type: functional, cell-based
[7] = target: 5-hydroxytryptamine receptor 3A (Homo sapiens) (UniProt P46098); test: Displacement of [3H]BRL 43694 from human 5-HT3 receptor expressed in CHO cells at 10^-6 M after 120 mins by scintillation counting analysis relative to control; assay type: cell-based
[8] = target: T1, 5-hydroxytryptamine receptor 7; test: Antagonist activity at human 5-HT7R expressed in human DLD1 cells assessed as inhibition of serotonin-induced cAMP accumulation by chemiluminescence-based assay; assay type: functional, cell-based
[9] = target: Sodium-dependent noradrenaline transporter (Homo sapiens) (UniProt P23975); test: Displacement of [3H]-nisoxetine from human NET expressed in CHO cells at 10^-6 M after 120 mins by scintillation counting method relative to control; assay type: cell-based
[10] = target: T2, 5-hydroxytryptamine receptor 1A (Homo sapiens) (UniProt P08908); test: Partial agonist activity at human 5-HT1AR expressed in CHO-K1 cells assessed as increase in calcium flux by fluorimetric method; assay type: functional, cell-based
T2 sequence (whole entry): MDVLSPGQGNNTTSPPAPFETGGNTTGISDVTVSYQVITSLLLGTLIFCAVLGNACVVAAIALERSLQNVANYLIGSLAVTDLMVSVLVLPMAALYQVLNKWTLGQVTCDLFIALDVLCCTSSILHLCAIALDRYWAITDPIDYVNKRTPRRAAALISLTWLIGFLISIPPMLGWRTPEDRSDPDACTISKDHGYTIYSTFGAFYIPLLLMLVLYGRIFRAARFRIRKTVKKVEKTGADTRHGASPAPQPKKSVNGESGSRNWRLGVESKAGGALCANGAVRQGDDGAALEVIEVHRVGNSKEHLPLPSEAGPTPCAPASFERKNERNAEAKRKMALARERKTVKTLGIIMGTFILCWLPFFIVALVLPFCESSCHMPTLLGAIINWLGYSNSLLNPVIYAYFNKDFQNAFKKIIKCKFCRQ

[11] = target: T3, 5-hydroxytryptamine receptor 1A (Homo sapiens, UniProt P08908); test: Partial agonist activity at human 5-HT1AR expressed in CHO-K1 cells assessed as increase in cAMP accumulation by chemiluminescence-based assay; assay type: functional, cell-based
T3 sequence (P08908 whole entry): T2 sequence (whole entry)

[12] = target: Sodium-dependent dopamine transporter (Homo sapiens) (UniProt Q01959); test: Displacement of [3H]-BTCP from human DAT expressed in CHO cells at 10^-6 M after 120 mins by scintillation counting method relative to control; assay type: cell-based
[13] = system: Rattus norvegicus; test: Reversal of ketamine-induced cognitive flexibility in ip dosed Sprague-Dawley rat administered 30 mins prior to ketamine administration by attentional set-shifting test; assay type: functional; conditions: read-out: MED
[14] = target: T4, 5-hydroxytryptamine receptor 2A (Homo sapiens, UniProt P28223); test: Antagonist activity at human 5-HT2AR expressed in HEK293 cells assessed as inhibition of serotonin-induced IP1 accumulation at 10^-6 M by chemiluminescence-based assay; assay type: functional, cell-based
[15] = target: T1, 5-hydroxytryptamine receptor 7; test: Antagonist activity at human 5-HT7R expressed in human DLD1 cells assessed as inhibition of serotonin-induced cAMP accumulation at 10^-6 M by chemiluminescence-based assay; assay type: functional, cell-based
[16] = Tmax in Wistar rat plasma at 9 mg/kg per os administered as a single dose by LC-MS/MS analysis; assay type: ADME, organism-based; conditions: po
[17] = system: Rattus norvegicus; test: Toxicity in Sprague-Dawley rat assessed as induction of catalepsy at 30 mg/kg, ip measured every 30 mins up to 240 mins by bar test; assay type: organism-based; conditions: in vivo
[18] = target: T4, 5-hydroxytryptamine receptor 2A; test: Displacement of [3H]ketanserin from human recombinant 5-HT2A receptor after 60 mins by scintillation counting analysis
[19] = target: Beta-1 adrenergic receptor (Homo sapiens) (UniProt P08588); test: Displacement of [3H]-CGP 12177 from human adrenergic beta1 receptor expressed in HEK293 cells at 10^-6 M after 60 mins by scintillation counting method relative to control; assay type: cell-based
[20] = system: Rattus norvegicus; test: Toxicity in Wistar rat assessed as increase in prolactin level at 1 to 3 mg/kg, po after 60 mins by ELISA; assay type: organism-based; conditions: in vivo, 1 h
[21] = target: T5, Alpha-1A adrenergic receptor (Homo sapiens) (UniProt P35348); test: Antagonist activity at human adrenergic alpha1A receptor expressed in CHO cells assessed as inhibition of epinephrine-induced calcium flux by fluorimetric method; assay type: functional, cell-based
T5 sequence (whole entry): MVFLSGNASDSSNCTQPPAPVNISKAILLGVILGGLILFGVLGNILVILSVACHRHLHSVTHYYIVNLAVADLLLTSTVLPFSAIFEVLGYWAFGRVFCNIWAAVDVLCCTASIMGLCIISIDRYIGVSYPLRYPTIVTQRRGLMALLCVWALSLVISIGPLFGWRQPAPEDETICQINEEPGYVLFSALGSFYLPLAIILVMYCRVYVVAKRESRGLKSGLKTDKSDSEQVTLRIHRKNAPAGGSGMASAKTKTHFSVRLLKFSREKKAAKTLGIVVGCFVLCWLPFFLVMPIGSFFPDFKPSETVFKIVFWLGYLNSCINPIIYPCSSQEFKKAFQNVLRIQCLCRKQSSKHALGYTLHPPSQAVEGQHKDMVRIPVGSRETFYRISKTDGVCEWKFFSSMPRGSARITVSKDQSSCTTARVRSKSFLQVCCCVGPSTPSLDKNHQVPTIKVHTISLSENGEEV

[22] = target: 5-hydroxytryptamine receptor 1D (Rattus norvegicus) (UniProt P28565); test: Antagonist activity at rat 5-HT1DR expressed in CHO cells assessed as inhibition of serotonin-induced response by cellular dielectric spectroscopy; assay type: functional, cell-based
[23] = target: T4, 5-hydroxytryptamine receptor 2A; test: Displacement of [3H]ketanserin from human recombinant 5-HT2A receptor at 10^-6 M after 60 mins by scintillation counting analysis relative to control
[24] = target: 5-hydroxytryptamine receptor 1D (Rattus norvegicus) (UniProt P28565); test: Displacement of [3H]-serotonin from rat 5-HT1DR expressed in CHO cells at 10^-6 M after 60 mins by scintillation counting analysis relative to control; assay type: cell-based
[25] = target: Histamine H1 receptor (Homo sapiens) (UniProt P35367); test: Displacement of [3H]-pyrilamine from human histamine H1 receptor expressed in HEK293 cells at 10^-6 M after 60 mins by scintillation counting method relative to control; assay type: cell-based
Sequence of Histamine H1 receptor (Homo sapiens) (P35367 whole entry): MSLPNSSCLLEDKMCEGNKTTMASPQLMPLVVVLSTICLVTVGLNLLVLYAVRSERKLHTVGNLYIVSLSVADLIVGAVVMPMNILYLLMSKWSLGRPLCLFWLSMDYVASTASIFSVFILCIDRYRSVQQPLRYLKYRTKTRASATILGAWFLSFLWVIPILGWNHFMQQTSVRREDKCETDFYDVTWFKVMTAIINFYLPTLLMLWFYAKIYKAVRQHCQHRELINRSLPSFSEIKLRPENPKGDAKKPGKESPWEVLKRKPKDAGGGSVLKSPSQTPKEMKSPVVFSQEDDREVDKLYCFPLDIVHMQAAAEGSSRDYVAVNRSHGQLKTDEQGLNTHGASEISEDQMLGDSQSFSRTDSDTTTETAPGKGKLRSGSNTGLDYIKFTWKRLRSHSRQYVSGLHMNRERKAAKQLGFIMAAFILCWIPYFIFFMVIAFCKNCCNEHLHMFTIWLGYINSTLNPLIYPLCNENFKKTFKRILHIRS

T4 sequence (P28223 whole entry): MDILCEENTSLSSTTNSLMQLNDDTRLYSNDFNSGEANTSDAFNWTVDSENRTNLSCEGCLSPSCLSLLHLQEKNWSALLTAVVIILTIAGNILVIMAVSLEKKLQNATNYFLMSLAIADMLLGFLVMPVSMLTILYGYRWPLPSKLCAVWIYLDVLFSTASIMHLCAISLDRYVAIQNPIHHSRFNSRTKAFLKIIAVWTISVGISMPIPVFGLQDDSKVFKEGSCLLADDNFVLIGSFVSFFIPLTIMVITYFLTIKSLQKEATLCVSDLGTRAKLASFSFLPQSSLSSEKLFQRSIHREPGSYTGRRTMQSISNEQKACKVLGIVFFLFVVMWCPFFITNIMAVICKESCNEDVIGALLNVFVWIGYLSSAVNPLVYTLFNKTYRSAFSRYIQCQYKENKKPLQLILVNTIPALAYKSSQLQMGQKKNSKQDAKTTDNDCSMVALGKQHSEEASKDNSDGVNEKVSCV
T1 sequence (P34969 whole entry): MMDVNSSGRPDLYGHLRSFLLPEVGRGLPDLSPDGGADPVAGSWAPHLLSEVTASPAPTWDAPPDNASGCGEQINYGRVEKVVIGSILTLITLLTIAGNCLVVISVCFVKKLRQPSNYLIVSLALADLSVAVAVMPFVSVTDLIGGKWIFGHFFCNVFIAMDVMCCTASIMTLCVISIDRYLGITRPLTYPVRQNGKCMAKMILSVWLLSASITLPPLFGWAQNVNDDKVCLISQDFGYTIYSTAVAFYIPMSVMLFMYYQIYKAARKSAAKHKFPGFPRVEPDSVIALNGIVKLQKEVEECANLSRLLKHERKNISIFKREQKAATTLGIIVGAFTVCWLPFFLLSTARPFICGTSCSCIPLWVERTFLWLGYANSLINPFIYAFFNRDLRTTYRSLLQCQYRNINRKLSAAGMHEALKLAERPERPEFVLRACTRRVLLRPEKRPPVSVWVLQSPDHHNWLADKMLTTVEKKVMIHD
Sequence of 5-hydroxytryptamine receptor 1D (Rattus norvegicus) (P28565 whole entry): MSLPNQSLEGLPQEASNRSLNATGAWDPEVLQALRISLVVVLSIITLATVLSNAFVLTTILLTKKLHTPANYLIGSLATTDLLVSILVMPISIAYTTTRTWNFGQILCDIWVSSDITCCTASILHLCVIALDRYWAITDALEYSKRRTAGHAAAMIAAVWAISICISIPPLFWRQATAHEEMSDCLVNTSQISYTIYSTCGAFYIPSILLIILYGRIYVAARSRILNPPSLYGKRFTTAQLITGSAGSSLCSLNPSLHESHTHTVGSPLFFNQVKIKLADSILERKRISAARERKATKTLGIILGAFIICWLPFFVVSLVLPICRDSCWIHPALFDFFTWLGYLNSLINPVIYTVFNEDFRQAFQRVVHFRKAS
Sequence of D(3) dopamine receptor (Homo sapiens) (P35462 whole entry): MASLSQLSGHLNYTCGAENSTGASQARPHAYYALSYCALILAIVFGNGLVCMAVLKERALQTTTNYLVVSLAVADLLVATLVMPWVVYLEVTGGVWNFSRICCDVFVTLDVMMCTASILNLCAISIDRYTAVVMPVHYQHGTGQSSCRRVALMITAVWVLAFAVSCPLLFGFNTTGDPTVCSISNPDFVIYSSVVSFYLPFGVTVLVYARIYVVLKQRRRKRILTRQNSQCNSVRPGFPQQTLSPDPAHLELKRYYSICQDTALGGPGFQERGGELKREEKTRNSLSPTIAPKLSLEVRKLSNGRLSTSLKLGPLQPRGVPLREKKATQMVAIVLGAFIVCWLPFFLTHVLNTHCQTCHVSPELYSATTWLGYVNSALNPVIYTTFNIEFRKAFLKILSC
Sequence of 5-hydroxytryptamine receptor 3A (Homo sapiens) (P46098 whole entry): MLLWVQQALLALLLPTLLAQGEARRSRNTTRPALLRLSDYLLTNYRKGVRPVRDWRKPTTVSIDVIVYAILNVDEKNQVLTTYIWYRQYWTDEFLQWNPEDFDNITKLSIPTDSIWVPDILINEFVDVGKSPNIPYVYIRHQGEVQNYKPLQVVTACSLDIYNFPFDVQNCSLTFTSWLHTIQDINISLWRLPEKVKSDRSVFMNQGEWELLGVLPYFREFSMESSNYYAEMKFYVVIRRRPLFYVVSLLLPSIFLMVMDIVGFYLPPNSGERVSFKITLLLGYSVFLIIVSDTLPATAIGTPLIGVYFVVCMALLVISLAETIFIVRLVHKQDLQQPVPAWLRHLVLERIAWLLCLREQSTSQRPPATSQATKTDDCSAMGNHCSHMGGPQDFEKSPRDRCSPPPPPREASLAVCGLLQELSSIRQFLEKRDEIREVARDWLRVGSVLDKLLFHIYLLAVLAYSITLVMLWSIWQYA
Sequence of 5-hydroxytryptamine receptor 1B (Cricetulus griseus) (P46636 whole entry): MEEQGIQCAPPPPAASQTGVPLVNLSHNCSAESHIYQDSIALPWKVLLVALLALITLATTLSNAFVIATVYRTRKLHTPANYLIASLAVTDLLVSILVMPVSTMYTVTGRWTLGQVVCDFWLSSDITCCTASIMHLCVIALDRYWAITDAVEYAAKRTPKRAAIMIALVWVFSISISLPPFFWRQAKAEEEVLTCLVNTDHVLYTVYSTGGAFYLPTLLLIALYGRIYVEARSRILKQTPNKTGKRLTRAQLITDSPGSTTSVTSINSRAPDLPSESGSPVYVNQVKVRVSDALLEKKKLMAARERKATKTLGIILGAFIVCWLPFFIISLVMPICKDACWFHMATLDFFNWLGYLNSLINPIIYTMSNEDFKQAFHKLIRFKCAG
Sequence of Sodium-dependent dopamine transporter (Homo sapiens) (Q01959 whole entry): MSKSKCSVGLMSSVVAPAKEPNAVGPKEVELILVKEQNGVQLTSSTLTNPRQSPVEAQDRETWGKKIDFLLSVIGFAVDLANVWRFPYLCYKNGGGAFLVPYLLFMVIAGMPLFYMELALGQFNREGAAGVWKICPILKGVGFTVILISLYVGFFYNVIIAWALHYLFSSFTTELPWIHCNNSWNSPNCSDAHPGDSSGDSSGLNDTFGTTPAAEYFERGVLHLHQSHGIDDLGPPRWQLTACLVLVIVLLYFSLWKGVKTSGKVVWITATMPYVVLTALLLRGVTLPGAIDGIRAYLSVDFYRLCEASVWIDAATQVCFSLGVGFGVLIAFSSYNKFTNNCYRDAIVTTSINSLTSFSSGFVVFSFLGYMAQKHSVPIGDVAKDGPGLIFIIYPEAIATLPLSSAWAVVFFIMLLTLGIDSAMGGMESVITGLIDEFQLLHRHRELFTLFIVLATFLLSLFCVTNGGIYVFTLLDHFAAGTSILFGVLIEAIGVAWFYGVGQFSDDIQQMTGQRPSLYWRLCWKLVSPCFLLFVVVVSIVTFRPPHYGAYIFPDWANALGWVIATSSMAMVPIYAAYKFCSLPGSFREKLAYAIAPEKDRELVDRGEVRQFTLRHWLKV
Sequence of Sodium-dependent noradrenaline transporter (Homo sapiens) (P23975 whole entry): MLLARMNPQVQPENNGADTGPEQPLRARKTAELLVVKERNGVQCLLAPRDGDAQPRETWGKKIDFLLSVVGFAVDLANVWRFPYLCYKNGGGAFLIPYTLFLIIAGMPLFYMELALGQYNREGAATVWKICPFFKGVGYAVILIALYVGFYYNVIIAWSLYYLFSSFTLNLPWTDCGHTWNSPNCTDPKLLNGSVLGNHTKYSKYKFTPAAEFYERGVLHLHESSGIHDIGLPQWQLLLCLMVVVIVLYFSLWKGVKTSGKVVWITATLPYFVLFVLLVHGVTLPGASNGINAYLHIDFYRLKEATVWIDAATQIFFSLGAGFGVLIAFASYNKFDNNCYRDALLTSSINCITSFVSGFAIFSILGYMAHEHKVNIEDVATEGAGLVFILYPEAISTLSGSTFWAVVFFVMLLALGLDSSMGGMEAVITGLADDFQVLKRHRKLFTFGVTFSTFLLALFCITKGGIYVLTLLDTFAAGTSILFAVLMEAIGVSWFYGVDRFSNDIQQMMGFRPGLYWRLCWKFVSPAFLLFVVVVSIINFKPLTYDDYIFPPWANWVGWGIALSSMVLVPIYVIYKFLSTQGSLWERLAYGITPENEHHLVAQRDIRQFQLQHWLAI
Sequence of Beta-1 adrenergic receptor (Homo sapiens) (P08588 whole entry, looked up): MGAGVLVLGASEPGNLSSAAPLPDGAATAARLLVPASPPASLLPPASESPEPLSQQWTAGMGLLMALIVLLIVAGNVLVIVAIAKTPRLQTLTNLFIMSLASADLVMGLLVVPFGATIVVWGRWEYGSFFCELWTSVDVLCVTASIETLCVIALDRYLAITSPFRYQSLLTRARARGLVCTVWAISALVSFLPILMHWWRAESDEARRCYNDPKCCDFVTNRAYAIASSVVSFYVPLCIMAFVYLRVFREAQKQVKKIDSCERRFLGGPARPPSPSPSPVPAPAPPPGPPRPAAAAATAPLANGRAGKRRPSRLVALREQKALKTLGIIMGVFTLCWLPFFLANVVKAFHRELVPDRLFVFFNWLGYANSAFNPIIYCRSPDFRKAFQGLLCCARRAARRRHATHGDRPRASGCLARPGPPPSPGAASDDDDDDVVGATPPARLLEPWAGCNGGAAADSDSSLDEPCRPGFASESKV

## O=S(=O)(c1cncc2ccccc12)N1CCC[C@H]1CCN1CCN(c2nsc3ccccc23)CC1
[1]
  Kb: 8.6 nM
[2]
  inhibition: 100%
[3]
  Activity: Non-Toxic

## O=S(=O)(c1cncc2ccccc12)N1CCC[C@H]1CCN1CCN(c2cccc3sccc23)CC1
[4]
  Ki: 19 nM
[5]
  Kb: 210 nM
[6]
  Kb: 92 nM
[7]
  inhibition: 15%
[8]
  Kb: 3.4 nM
[9]
  inhibition: 11%
[10]
  Kb: 28.3 nM
[11]
  EC50: 28.3 nM
[12]
  inhibition: 19%
[13]
  minimal effective dose: 1 mg/kg
[14]
  inhibition: 100%
[15]
  inhibition: 94%
[16]
  Tmax: 10 min
[17]
  Activity: Non-Toxic
[18]
  Ki: 9 nM
[19]
  inhibition: 31%
[20]
  Activity: Non-Toxic
[21]
  Kb: 13 nM
[22]
  Kb: 2.8 nM
[23]
  inhibition: 100%
[24]
  inhibition: 95%
[25]
  inhibition: 96%
